Values belong to the molecule of their own block, whether it stands above or below them.
Assays:
Hamster [1] = assay: Drug metabolism in hamster assessed as appearance rate of compound in intestine treated with 400 uM of ethyl piperate administered as intestinal single-pass perfusion up to 1 hr by LC-MS/MS analysis; assay type: ADME, organism-based; settings: cricetinae, in vivo, other
[2] = Apparent permeability coefficient of compound in hamster treated with 400 uM of ethyl piperate administered as intestinal single-pass perfusion up to 1 hr by LC-MS/MS analysis in presence of BNPP; assay type: ADME, organism-based; settings: cricetinae
[3] = Apparent permeability coefficient of compound in hamster treated with 400 uM of ethyl piperate administered as intestinal single-pass perfusion up to 1 hr by LC-MS/MS analysis; assay type: ADME, organism-based; settings: cricetinae
Hamster [4] = assay: Drug metabolism in hamster assessed as appearance rate of compound in portal vein treated with 400 uM of ethyl piperate administered as intestinal single-pass perfusion up to 1 hr by LC-MS/MS analysis; assay type: ADME, organism-based; settings: cricetinae, in vivo, other
Hamster [5] = assay: Drug metabolism in hamster assessed as appearance rate of compound in portal vein treated with 400 uM of ethyl piperate administered as intestinal single-pass perfusion up to 1 hr by LC-MS/MS analysis in presence of BNPP; assay type: ADME, organism-based; settings: cricetinae, in vivo, other
Hamster [6] = assay: Drug metabolism in hamster assessed as appearance rate of compound in intestine treated with 400 uM of ethyl piperate administered as intestinal single-pass perfusion up to 1 hr by LC-MS/MS analysis in presence of BNPP; assay type: ADME, organism-based; settings: cricetinae, in vivo, other
[7] = Stability of the compound at simulated gastrointestinal pH conditions assessed as degradation; assay type: ADME
[8] = Drug metabolism in hamster liver microsomes assessed as carboxylesterase-mediated compound hydrolysis at 50 uM after 30 mins in presence of BNPP in presence of BNPP; assay type: ADME; settings: cricetinae, 0.5 h
[9] = Cmax in hamster at 30 mg/kg, po; assay type: ADME, organism-based; set-up: dose 30 mg/kg, route oral; settings: cricetinae, in vivo
[10] = AUC (0 to t) in hamster at 30 mg/kg, po; assay type: ADME, organism-based; set-up: dose 30 mg/kg, route oral; settings: cricetinae, plasma
[11] = Permeability from apical to basolateral side of human Caco2 cells at 5 uM after 1 hr in presence of BNPP; assay type: ADME, cell-based; settings: caco-2, 1 h
[12] = AUC (0 to t) in hamster at 10 mg/kg, iv; assay type: ADME, organism-based; set-up: dose 10 mg/kg, route intravenous; settings: cricetinae, plasma
[13] = Drug metabolism in hamster liver microsomes assessed as carboxylesterase-mediated compound hydrolysis at 50 uM after 30 mins in presence of BNPP; assay type: ADME; settings: cricetinae, 0.5 h
Hamster [14] = assay: Drug metabolism in hamster assessed as appearance rate of parent compound in portal vein at 400 uM administered as intestinal single-pass perfusion up to 1 hr by LC-MS/MS analysis in presence of BNPP; assay type: ADME, organism-based; settings: cricetinae, in vivo, other
Hamster [15] = assay: Degradation clearance in hamster at 400 uM administered as intestinal single-pass perfusion up to 1 hr by LC-MS/MS analysis; assay type: ADME, organism-based; settings: cricetinae, in vivo, other
Hamster [16] = assay: Drug metabolism in hamster assessed as disappearance rate of parent compound in intestine at 400 uM administered as intestinal single-pass perfusion up to 1 hr by LC-MS/MS analysis; assay type: ADME, organism-based; settings: cricetinae, in vivo, other
[17] = Drug metabolism in hamster kidney microsomes assessed as carboxylesterase-mediated compound hydrolysis at 50 uM after 30 mins in presence of BNPP; assay type: ADME; settings: cricetinae, 0.5 h
[18] = MRT (0 to t) in hamster at 10 mg/kg, iv; assay type: ADME, organism-based; set-up: dose 10 mg/kg, route intravenous; settings: cricetinae, in vivo
[19] = Drug metabolism in hamster liver microsomes assessed as carboxylesterase-mediated compound hydrolysis at 50 uM after 30 mins; assay type: ADME; settings: cricetinae, 0.5 h
Hamster [20] = assay: Drug metabolism in hamster assessed as production of piperinic acid at 400 uM administered as intestinal single-pass perfusion up to 1 hr by LC-MS/MS analysis; assay type: ADME, organism-based; settings: cricetinae, in vivo, other
Hamster [21] = assay: Absorption clearance in hamster at 400 uM administered as intestinal single-pass perfusion up to 1 hr by LC-MS/MS analysis in presence of BNPP; assay type: ADME, organism-based; settings: cricetinae, in vivo, other
Hamster [22] = assay: Volume of distribution in hamster at 10 mg/kg, iv; assay type: ADME, organism-based; set-up: dose 10 mg/kg, route intravenous; settings: cricetinae, in vivo
Hamster [23] = assay: Absorption clearance in hamster at 400 uM administered as intestinal single-pass perfusion up to 1 hr by LC-MS/MS analysis; assay type: ADME, organism-based; settings: cricetinae, in vivo, other
[24] = Permeability from basolateral to apical side of human Caco2 cells at 5 uM after 1 hr in presence of BNPP; assay type: ADME, cell-based; settings: caco-2, 1 h
[25] = Oral bioavailability in hamster at 30 mg/kg; assay type: ADME, organism-based; settings: cricetinae, in vivo
Hamster [26] = assay: Drug metabolism in hamster assessed as appearance rate of parent compound in portal vein at 400 uM administered as intestinal single-pass perfusion up to 1 hr by LC-MS/MS analysis; assay type: ADME, organism-based; settings: cricetinae, in vivo, other
[27] = Tmax in hamster at 30 mg/kg, po; assay type: ADME, organism-based; set-up: dose 30 mg/kg, route oral; settings: cricetinae, in vivo
[28] = Drug metabolism in hamster intestinal S9 fraction assessed as production of piperinic acid by Michaelis-Menten equation analysis; assay type: ADME, Intestine; settings: cricetinae
[29] = Drug metabolism in hamster kidney microsomes assessed as carboxylesterase-mediated compound hydrolysis at 50 uM after 30 mins; assay type: ADME; settings: cricetinae, 0.5 h
Hamster [30] = assay: Drug metabolism in hamster assessed as disappearance rate of parent compound in intestine at 400 uM administered as intestinal single-pass perfusion up to 1 hr by LC-MS/MS analysis in presence of BNPP; assay type: ADME, organism-based; settings: cricetinae, in vivo, other
[31] = MRT (0 to t) in hamster at 30 mg/kg, po; assay type: ADME, organism-based; set-up: dose 30 mg/kg, route oral; settings: cricetinae, in vivo
[32] = Stability of the compound in hamster intestinal washings assessed as compound remaining at 100 uM after 1 hr by LC-MS/MS analysis; assay type: ADME; settings: cricetinae, read-out: Stability
[33] = Drug recovery in human Caco2 cells at 5 uM after 1 hr in presence of BNPP; assay type: ADME, cell-based; settings: Caco-2, with BNPP, read-out: Drug recovery
[34] = Apparent permeability coefficient of parent compound in hamster at 400 uM administered as intestinal single-pass perfusion up to 1 hr by LC-MS/MS analysis in presence of BNPP; assay type: ADME, organism-based; settings: cricetinae, with BNPP
[35] = Elimination half life in hamster at 10 mg/kg, iv; assay type: ADME, organism-based; set-up: dose 10 mg/kg, route intravenous; settings: cricetinae, in vivo, read-out: beta t1/2 (converted)
Hamster [36] = assay: Drug metabolism in hamster intestinal S9 fraction assessed as production of piperinic acid at 400 uM administered as intestinal single-pass perfusion up to 1 hr by LC-MS/MS analysis in presence of BNPP; assay type: ADME, Intestine; settings: cricetinae, s9, 1 h
[37] = Drug metabolism in hamster intestinal microsomes assessed as carboxylesterase-mediated compound hydrolysis at 50 uM after 30 mins; assay type: ADME, Intestine; settings: cricetinae, 0.5 h
Hamster [38] = assay: Degradation clearance in hamster at 400 uM administered as intestinal single-pass perfusion up to 1 hr by LC-MS/MS analysis in presence of BNPP; assay type: ADME, organism-based; settings: cricetinae, in vivo, other
[39] = Apparent permeability coefficient of parent compound in hamster at 400 uM administered as intestinal single-pass perfusion up to 1 hr by LC-MS/MS analysis; assay type: ADME, organism-based; settings: cricetinae

Drug metabolism (Hamster [1]): 2.3 nmol/min
Papp at 1 h [2]: 127 ×10⁻⁶ cm/s
Papp at 1 h [3]: 373 ×10⁻⁶ cm/s
Drug metabolism (Hamster [4]): 52.1 nmol/min
Drug metabolism (Hamster [5]): 21.7 nmol/min
Drug metabolism (Hamster [6]): 2 nmol/min
SMILES: O=C(O)/C=C/C=C/c1ccc2c(c1)OCO2 [PIPERIC ACID]

Stability [7]: Stable
Drug metabolism [8]: metabolite_not_detected
Cmax [9]: 70.4 ng/mL
AUC(0-t) [10]: 34.5 ng·h/mL
permeability [11]: impermeable
AUC(0-t) [12]: 2450 ng·h/mL
Drug metabolism [13]: metabolite_not_detected
Drug metabolism (Hamster [14]): 9.8 nmol/min
CL (Hamster [15]): 339.9 µL/min
Drug metabolism (Hamster [16]): 76.5 nmol/min
Drug metabolism [17]: metabolite_not_detected
MRT last [18]: 25.8 min
Drug metabolism [19]: metabolite_detected
Drug metabolism (Hamster [20]): 0.196 nmol/min/mg
CL(app) (Hamster [21]): 55 µL/min
Vz/F (Hamster [22]): 3.76 L/kg
CL(app) (Hamster [23]): 66.7 µL/min
permeability [24]: impermeable
bioavailability [25]: 0.47%
Drug metabolism (Hamster [26]): 10.8 nmol/min
Tmax [27]: 9 min
Km [28]: 7.56 µM
Vmax [28]: 0.16 nmol/min/mg
Drug metabolism [29]: metabolite_detected
Drug metabolism (Hamster [30]): 62.7 nmol/min
MRT last [31]: 24 min
remaining at 1 h, 100 µM [32]: > 80%
recovery at 1 h, 5 µM [33]: > 90%
Papp at 1 h, 400 µM [34]: 59.8 ×10⁻⁶ cm/s
half-life [35]: 37.8 min
Drug metabolism (Hamster [36]): 0.06 nmol/min/mg
Drug metabolism [37]: metabolite_detected
CL (Hamster [38]): 121.6 µL/min
Papp at 1 h, 400 µM [39]: 77 ×10⁻⁶ cm/s
SMILES: CCOC(=O)/C=C/C=C/c1ccc2c(c1)OCO2
